Where a SMILES comes first, the peptide text is derived from it.
Biological target: purified HLA-DRB1*0101 (Homo sapiens, UniProt P01903+P01911, A100R/D57E/F55L/F60I/F76Y/I96L/L162R/M171V/P40L/Q125E/R42F/V115G/Y59C)
Test: biochemical
Format: binding

Compound	IC50 [nM]
CC[C@H](C)[C@H](NC(=O)[C@H](Cc1c[nH]c2ccccc12)NC(=O)[C@H](CC(=O)O)NC(=O)[C@H](Cc1ccccc1)NC(=O)[C@H](CCC(=O)O)NC(=O)[C@@H]1CCCN1C(=O)[C@H](CO)NC(=O)CNC(=O)[C@@H](N)CCCCN)C(=O)N[C@@H](CC(C)C)C(=O)NCC(=O)N[C@@H](Cc1c[nH]c2ccccc12)C(=O)N[C@H](C(=O)N[C@H](C(=O)N[C@@H](CCCCN)C(=O)O)[C@@H](C)CC)[C@@H](C)O [GTOV GPC131-145] (H-KGSPEFDWILGWTIK-OH)	1.7
CC[C@H](C)[C@H](NC(=O)[C@H](CC(=O)O)NC(=O)[C@H](CC(N)=O)NC(=O)[C@H](Cc1ccccc1)NC(=O)[C@@H](NC(=O)[C@H](CCCCN)NC(=O)[C@H](CCCNC(=N)N)NC(=O)[C@H](C)NC(=O)[C@H](CS)NC(=O)[C@H](CC(N)=O)NC(=O)[C@H](CCCNC(=N)N)NC(=O)[C@@H](NC(=O)[C@H](Cc1ccccc1)NC(=O)[C@H](CO)NC(=O)[C@@H](N)[C@@H](C)O)[C@@H](C)CC)C(C)C)C(=O)O [MACV L1491-1505]	0.11
CC[C@H](C)[C@H](NC(=O)[C@H](CC(C)C)NC(=O)[C@H](Cc1ccccc1)NC(=O)[C@@H](NC(=O)[C@H](CC(N)=O)NC(=O)[C@@H](NC(=O)CNC(=O)CNC(=O)[C@H](CCCCN)NC(=O)[C@H](CCSC)NC(=O)[C@H](Cc1ccc(O)cc1)NC(=O)[C@H](Cc1ccc(O)cc1)NC(=O)[C@H](Cc1ccccc1)NC(=O)[C@H](CO)NC(=O)[C@@H](N)CC(N)=O)C(C)C)[C@@H](C)O)C(=O)O [MACV GPC96-110]	0.21
CC(C)C[C@H](NC(=O)CNC(=O)[C@H](CC(C)C)NC(=O)[C@H](CO)NC(=O)[C@@H](NC(=O)[C@H](CC(C)C)NC(=O)[C@H](C)NC(=O)[C@H](CCC(N)=O)NC(=O)[C@@H](NC(=O)[C@@H](NC(=O)[C@H](CO)NC(=O)[C@@H](N)CC(N)=O)C(C)C)C(C)C)[C@@H](C)O)C(=O)N[C@@H](CC(C)C)C(=O)N[C@@H](Cc1ccc(O)cc1)C(=O)N[C@H](C(=O)O)[C@@H](C)O [MACV NP191-205]	0.78
CC[C@H](C)[C@H](NC(=O)[C@H](CC(=O)O)NC(=O)[C@H](CC(C)C)NC(=O)[C@@H](NC(=O)[C@@H](N)CCCNC(=N)N)C(C)C)C(=O)N[C@@H](CC(C)C)C(=O)N[C@H](C(=O)N[C@@H](C)C(=O)N[C@@H](CCCNC(=N)N)C(=O)N[C@@H](CCCNC(=N)N)C(=O)N[C@@H](CC(C)C)C(=O)N[C@@H](CC(C)C)C(=O)N[C@@H](CC(C)C)C(=O)N[C@@H](CCCCN)C(=O)N[C@@H](CCCCN)C(=O)O)C(C)C [GTOV L391-405] (H-RVLDILVARRLLLKK-OH)	0.19
CC[C@H](C)[C@H](NC(=O)[C@H](CC(C)C)NC(=O)CNC(=O)[C@H](CCC(=O)O)NC(=O)[C@@H]1CCCN1C(=O)[C@H](CC(N)=O)NC(=O)[C@@H](NC(=O)[C@H](CCCCN)NC(=O)[C@H](CCC(N)=O)NC(=O)[C@H](Cc1ccccc1)NC(=O)[C@H](CC(N)=O)NC(=O)[C@@H](N)CCCNC(=N)N)C(C)C)C(=O)N[C@@H](CCCCN)C(=O)N[C@@H](CCC(=O)O)C(=O)N[C@@H](Cc1ccccc1)C(=O)O [LCMV L256-270] (H-RNFQKVNPEGLIKEF-OH)	5.6
CC[C@H](C)[C@H](NC(=O)[C@H](Cc1c[nH]cn1)NC(=O)[C@H](Cc1c[nH]cn1)NC(=O)[C@@H](NC(=O)[C@H](CCC(N)=O)NC(=O)[C@H](CC(N)=O)NC(=O)[C@H](C)NC(=O)[C@H](Cc1ccccc1)NC(=O)[C@H](C)NC(=O)[C@H](CCSC)NC(=O)[C@H](CC(C)C)NC(=O)[C@H](Cc1ccccc1)NC(=O)[C@H](Cc1ccc(O)cc1)NC(=O)[C@@H](N)CCCNC(=N)N)[C@@H](C)CC)C(=O)N[C@@H](CC(=O)O)C(=O)O [MACV L636-650]	0.24
CC[C@H](C)[C@H](NC(=O)[C@H](CC(C)C)NC(=O)[C@H](CCCNC(=N)N)NC(=O)[C@H](Cc1c[nH]cn1)NC(=O)[C@H](Cc1ccc(O)cc1)NC(=O)[C@H](CCC(=O)O)NC(=O)[C@H](CCC(N)=O)NC(=O)[C@@H](N)CC(=O)O)C(=O)N[C@@H](Cc1c[nH]cn1)C(=O)N[C@@H](CO)C(=O)N[C@@H](CC(C)C)C(=O)N[C@@H](CO)C(=O)N[C@@H](CCCCN)C(=O)N[C@H](C(=O)N[C@@H](CO)C(=O)O)[C@@H](C)O [GTOV L181-195] (H-DQEYHRLIHSLSKTS-OH)	0.34
CC[C@H](C)[C@H](NC(=O)[C@H](CC(C)C)NC(=O)[C@H](Cc1c[nH]cn1)NC(=O)[C@H](CC(=O)O)NC(=O)[C@H](CO)NC(=O)[C@H](CCC(=O)O)NC(=O)[C@H](CC(C)C)NC(=O)[C@H](CC(C)C)NC(=O)[C@H](Cc1c[nH]c2ccccc12)NC(=O)[C@H](CCC(N)=O)NC(=O)[C@H](CC(N)=O)NC(=O)[C@H](CCCNC(=N)N)NC(=O)[C@@H](N)Cc1ccccc1)C(=O)N[C@@H](CO)C(=O)N[C@@H](CCC(=O)O)C(=O)O [WWAV GPC386-400] (H-FRNQWLLESDHLISE-OH)	1.6
CC[C@H](C)[C@H](NC(=O)[C@H](CC(C)C)NC(=O)[C@H](CO)NC(=O)[C@@H](N)C(C)C)C(=O)N[C@@H](C)C(=O)N[C@@H](C)C(=O)N[C@@H](CC(C)C)C(=O)N[C@@H](CCCCN)C(=O)NCC(=O)N[C@@H](CCSC)C(=O)N[C@H](C(=O)N[C@@H](CC(N)=O)C(=O)N[C@@H](CC(C)C)C(=O)N[C@@H](Cc1c[nH]c2ccccc12)C(=O)N[C@@H](CCCCN)C(=O)O)[C@@H](C)CC [SABV GPC26-40] (H-VSLIAALKGMINLWK-OH)	0.47
CC[C@H](C)[C@H](NC(=O)CNC(=O)[C@@H](NC(=O)[C@H](CC(C)C)NC(=O)[C@H](Cc1c[nH]cn1)NC(=O)[C@H](CC(C)C)NC(=O)[C@H](Cc1ccccc1)NC(=O)[C@H](CC(C)C)NC(=O)[C@H](CO)NC(=O)[C@H](C)N)C(C)C)C(=O)N1CCC[C@H]1C(=O)N[C@H](C(=O)N[C@@H](Cc1c[nH]cn1)C(=O)N[C@@H](CCCNC(=N)N)C(=O)N[C@@H](Cc1c[nH]cn1)C(=O)O)[C@@H](C)O [MACV GPC446-460]	0.13
CC(C)C[C@H](NC(=O)CNC(=O)[C@H](CS)NC(=O)[C@@H](N)CO)C(=O)N[C@@H](Cc1ccc(O)cc1)C(=O)N[C@@H](CCCCN)C(=O)N[C@@H](CCC(N)=O)C(=O)N1CCC[C@H]1C(=O)NCC(=O)N[C@H](C(=O)N1CCC[C@H]1C(=O)N[C@H](C(=O)N[C@@H](CCCNC(=N)N)C(=O)N[C@@H](Cc1c[nH]c2ccccc12)C(=O)N[C@@H](CCCCN)C(=O)O)C(C)C)C(C)C [LASV GPC476-490]	1.5
CC[C@H](C)[C@H](NC(=O)[C@@H](NC(=O)[C@H](CC(C)C)NC(=O)[C@H](C)NC(=O)[C@@H]1CCCN1C(=O)[C@H](CCSC)NC(=O)[C@H](CO)NC(=O)CNC(=O)[C@H](Cc1ccccc1)NC(=O)[C@H](CCC(N)=O)NC(=O)[C@H](CC(N)=O)NC(=O)[C@H](CC(N)=O)NC(=O)[C@H](CC(C)C)NC(=O)[C@@H](N)CCCCN)[C@@H](C)O)C(=O)N[C@@H](C)C(=O)O [GTOV NP166-180]	0.12
CC[C@H](C)[C@H](NC(=O)[C@H](C)NC(=O)[C@H](CCC(=O)O)NC(=O)[C@H](CC(C)C)NC(=O)[C@@H](NC(=O)[C@H](CC(=O)O)NC(=O)[C@H](CC(C)C)NC(=O)[C@H](CC(C)C)NC(=O)[C@@H](N)CCCNC(=N)N)[C@@H](C)CC)C(=O)N[C@@H](CCCCN)C(=O)N[C@@H](CC(C)C)C(=O)N[C@H](C(=O)N[C@@H](CCCNC(=N)N)C(=O)N[C@@H](CCCCN)C(=O)N[C@@H](CCCCN)C(=O)O)[C@@H](C)CC [JUNV L391-405]	0.48
CC[C@H](C)[C@H](NC(=O)[C@H](CCC(=O)O)NC(=O)[C@H](CO)NC(=O)[C@H](CC(C)C)NC(=O)[C@@H](NC(=O)[C@@H](NC(=O)[C@H](CCCCN)NC(=O)[C@H](CCCNC(=N)N)NC(=O)[C@H](CC(C)C)NC(=O)[C@@H](N)Cc1c[nH]cn1)C(C)C)[C@@H](C)CC)C(=O)N[C@@H](CO)C(=O)N[C@@H](Cc1ccccc1)C(=O)N[C@@H](Cc1c[nH]cn1)C(=O)N[C@@H](CC(C)C)C(=O)N[C@H](C(=O)O)C(C)C [LCMV L946-960] (H-HLRKVILSEISFHLV-OH)	2.1
CC(C)C[C@H](NC(=O)[C@H](CO)NC(=O)[C@@H]1CCCN1C(=O)[C@@H]1CCCN1C(=O)[C@H](C)NC(=O)[C@@H](NC(=O)[C@H](CCCNC(=N)N)NC(=O)[C@H](CCCNC(=N)N)NC(=O)[C@H](Cc1ccccc1)NC(=O)[C@H](CCC(=O)O)NC(=O)[C@H](C)NC(=O)[C@H](CO)NC(=O)[C@@H]1CCCN1)[C@@H](C)O)C(=O)N[C@@H](Cc1ccc(O)cc1)C(=O)NCC(=O)O [MACV Z21-35] (H-PSAEFRRTAPPSLYG-OH)	2
CC(C)C[C@H](NC(=O)[C@H](CCC(=O)O)NC(=O)[C@H](CCCNC(=N)N)NC(=O)[C@H](CCCNC(=N)N)NC(=O)[C@H](CC(C)C)NC(=O)[C@H](C)NC(=O)[C@H](CCC(N)=O)NC(=O)[C@@H](NC(=O)[C@H](Cc1c[nH]c2ccccc12)NC(=O)[C@H](CCC(N)=O)NC(=O)[C@H](Cc1ccccc1)NC(=O)[C@H](CO)NC(=O)[C@H](CCCCN)NC(=O)[C@@H](NC(=O)[C@@H](N)CCC(=O)O)C(C)C)[C@@H](C)O)C(=O)O [LCMV NP6-20]	49
CC[C@H](C)[C@H](NC(=O)[C@H](Cc1ccc(O)cc1)NC(=O)[C@H](CC(=O)O)NC(=O)[C@H](CCCCN)NC(=O)[C@H](CCCNC(=N)N)NC(=O)[C@@H](N)CC(C)C)C(=O)N[C@@H](CCCCN)C(=O)N[C@@H](CCCNC(=N)N)C(=O)N[C@@H](CCC(N)=O)C(=O)NCC(=O)N[C@@H](CO)C(=O)N[C@H](C(=O)N1CCC[C@H]1C(=O)N[C@@H](CC(C)C)C(=O)N[C@@H](C)C(=O)O)[C@@H](C)O [LCMV GPC421-435]	4.8
CC(C)[C@H](NC(=O)[C@H](C)NC(=O)[C@H](Cc1c[nH]c2ccccc12)NC(=O)[C@H](Cc1ccccc1)NC(=O)[C@H](Cc1ccccc1)NC(=O)[C@H](CC(N)=O)NC(=O)[C@H](CCC(N)=O)NC(=O)[C@H](CC(N)=O)NC(=O)[C@@H](N)CC(N)=O)C(=O)N[C@@H](CCCCN)C(=O)N1CCC[C@H]1C(=O)N[C@@H](CCCCN)C(=O)N[C@H](C(=O)N[C@H](C(=O)N[C@@H](CCCNC(=N)N)C(=O)O)C(C)C)C(C)C [MACV L1711-1725]	1.7

— publication PMC2880318 (Immunome Research, 2010)
